How the values were obtained:
[1] = system: Hepatitis C virus; experiment: Antiviral activity against HCV genotype 1b by cell-based luciferase reporter gene assay; format: functional, organism-based, Hepacivirus hominis
[2] = Inhibition of HCV genotype 1b NS5B delta21 polymerase; parameters: species or system Hepatitis C virus subtype 1b
[3] = Dissociation constant, pKa of the compound; format: physicochemical
[4] = Permeability across apical to basolateral side in human Caco2 cells; format: ADME, cell-based; conditions: Caco-2, read-out: permeability
[5] = Solubility of the compound at pH 2 after 24 hrs by shake-flask method; format: physicochemical; conditions: buffer, pH 2, 24 h
[6] = Lipophilicity, log D of the compound at pH 7.4; format: physicochemical; conditions: buffer
[7] = Half life in rat liver microsomes at 2 uM; format: ADME
[8] = Half life in human liver microsomes at 2 uM; format: ADME

Row | EC50 [1] | IC50 [2] | Compound | other results
1 | > 30000 nM | 340 nM | O=C(O)c1cc(Oc2ccccc2)ccc1NS(=O)(=O)c1ccc(Br)cc1F | 
2 | > 30000 nM | 160 nM | Cc1ccc(S(=O)(=O)Nc2cc(Oc3ccccc3)ccc2C(=O)O)cc1 | 
3 | > 30000 nM | 310 nM | O=C(O)c1ccc(Oc2ccccc2)cc1NS(=O)(=O)c1ccc(Br)cc1F | 
4 | > 25000 nM | 610 nM | O=C(O)c1ccc(Oc2ccccc2)cc1NS(=O)(=O)c1ccc(Br)s1 | 
5 | > 30000 nM | 220 nM | Cc1ccc(S(=O)(=O)Nc2ccc(Oc3ccccc3)cc2C(=O)O)cc1 | 
6 |  | 80 nM | CC(C)N(c1ccc(Oc2ncccc2C(F)(F)F)cc1C(=O)O)C(=O)[C@H]1CC[C@H](C)CC1 | half-life at 2 µM [8]: 1.15 h; solubility [5]: < 0.1 µg/mL; half-life at 2 µM [7]: 1 h
7 | 4500 nM | 1300 nM | CC(C)N(c1cc(Oc2ccccc2C(F)(F)F)ccc1C(=O)O)C(=O)[C@H]1CC[C@H](C)CC1 | 
8 | 8600 nM | 210 nM | Cc1ccc(S(=O)(=O)Nc2ccc(OC3CCCC3)cc2C(=O)O)cc1 | 
9 |  | 1900 nM | Cc1ccc(Oc2ccc(C(=O)O)c(NS(=O)(=O)c3ccc(Br)s3)c2)cc1 | 
10 |  | 1100 nM | Cc1cccc(Oc2ccc(C(=O)O)c(NS(=O)(=O)c3ccc(Br)s3)c2)c1 | 
11 |  | 1500 nM | Cc1ccccc1Oc1ccc(C(=O)O)c(NS(=O)(=O)c2ccc(Br)s2)c1 | 
12 |  | 2900 nM | CC(=O)Nc1ccc(Oc2ccc(C(=O)O)c(NS(=O)(=O)c3ccc(Br)s3)c2)cc1 | 
13 |  | 1400 nM | O=C(O)c1cccc(Oc2ccc(C(=O)O)c(NS(=O)(=O)c3ccc(Br)s3)c2)c1 | 
14 |  | 2200 nM | O=C(O)c1ccc(Oc2ccc(C(=O)O)c(NS(=O)(=O)c3ccc(Br)s3)c2)cc1 | 
15 | > 30000 nM | 3000 nM | O=C(O)c1ccc(Oc2ccccc2C(F)(F)F)cc1NS(=O)(=O)c1ccc(Br)s1 | 
16 | > 10000 nM | 1640 nM | CC(C)N(C(=O)c1ccc(Br)cc1F)c1ccc(Oc2ccccc2)cc1C(=O)O | 
17 | 5000 nM | 670 nM | CC(C)N(c1ccc(Oc2ccccc2)cc1C(=O)O)C(=O)[C@H]1CC[C@H](C)CC1 | 
18 | 25000 nM | 1300 nM | CC[C@H]1CC[C@H](C(=O)N(c2ccc(Oc3ccccc3)cc2C(=O)O)C(C)C)CC1 | 
19 | 16000 nM | 2000 nM | CC(C)N(c1ccc(Oc2ccccc2)cc1C(=O)O)C(=O)[C@H]1CC[C@H](C(F)(F)F)CC1 | 
20 | > 10000 nM | 1400 nM | CC(C)N(C(=O)c1ccc(Br)cc1F)c1cc(Oc2ccccc2)ccc1C(=O)O | 

Row | EC50 [1] | IC50 [2] | Compound | other results
21 | 11000 nM | 740 nM | CC(C)N(c1cc(Oc2ccccc2)ccc1C(=O)O)C(=O)[C@H]1CC[C@H](C)CC1 | 
22 | > 40000 nM | 4300 nM | CC[C@H]1CC[C@H](C(=O)N(c2cc(Oc3ccccc3)ccc2C(=O)O)C(C)C)CC1 | 
23 | 16000 nM | 1300 nM | CC(C)N(c1cc(Oc2ccccc2)ccc1C(=O)O)C(=O)[C@H]1CC[C@H](C(F)(F)F)CC1 | 
24 | 1000 nM | 460 nM | CC(C)N(c1ccc(OC2CCCC2)cc1C(=O)O)C(=O)[C@H]1CC[C@H](C)CC1 | 
25 | 6300 nM | 470 nM | CC(C)N(c1ccc(Oc2cccc(C(F)(F)F)c2)cc1C(=O)O)C(=O)[C@H]1CC[C@H](C)CC1 | 
26 | 2800 nM | 740 nM | CC(C)N(c1ccc(Oc2ccccc2OC(F)(F)F)cc1C(=O)O)C(=O)[C@H]1CC[C@H](C)CC1 | 
27 | 4900 nM | 450 nM | CC(C)N(c1ccc(Oc2ccccc2Br)cc1C(=O)O)C(=O)[C@H]1CC[C@H](C)CC1 | 
28 | 4300 nM | 330 nM | CC(C)N(c1ccc(Oc2ccccc2C2CC2)cc1C(=O)O)C(=O)[C@H]1CC[C@H](C)CC1 | 
29 | 620 nM | 300 nM | CC(C)N(c1ccc(Oc2ccccc2C(C)(F)F)cc1C(=O)O)C(=O)[C@H]1CC[C@H](C)CC1 | 
30 | 1100 nM | 200 nM | CC(C)N(c1ccc(Oc2ccccc2C(F)F)cc1C(=O)O)C(=O)[C@H]1CC[C@H](C)CC1 | 
31 | 170 nM | 190 nM | CC(C)N(c1ccc(Oc2ccncc2C(F)(F)F)cc1C(=O)O)C(=O)[C@H]1CC[C@H](C)CC1 | 
32 | > 50000 nM | > 40000 nM | CC(C)N(c1cc(OC2CCCC2)ccc1C(=O)O)C(=O)[C@H]1CC[C@H](C)CC1 | 
33 | > 30000 nM | 780 nM | Cc1ccc(Oc2ccc(NS(=O)(=O)c3ccc(C)cc3)c(C(=O)O)c2)cc1 | 
34 | > 30000 nM | 470 nM | Cc1ccc(S(=O)(=O)Nc2ccc(Oc3cccc(C)c3)cc2C(=O)O)cc1 | 
35 | > 30000 nM | 530 nM | Cc1ccc(S(=O)(=O)Nc2ccc(Oc3ccccc3C)cc2C(=O)O)cc1 | 
36 | 30000 nM | 290 nM | CC(=O)Nc1ccc(Oc2ccc(NS(=O)(=O)c3ccc(C)cc3)c(C(=O)O)c2)cc1 | 
37 | > 30000 nM | 330 nM | Cc1ccc(S(=O)(=O)Nc2ccc(Oc3cccc(C(=O)O)c3)cc2C(=O)O)cc1 | 
38 | > 30000 nM | 85 nM | Cc1ccc(S(=O)(=O)Nc2ccc(Oc3ccc(C(=O)O)cc3)cc2C(=O)O)cc1 | 
39 | 7300 nM | 270 nM | Cc1ccc(S(=O)(=O)Nc2ccc(Oc3ccccc3C(F)(F)F)cc2C(=O)O)cc1 | half-life at 2 µM [8]: 0.2 h; Papp A→B [4]: 3.6 ×10⁻⁶ cm/s
40 | 7000 nM | 370 nM | Cc1ccc(S(=O)(=O)Nc2ccc(Oc3ccccc3OC(F)(F)F)cc2C(=O)O)cc1 | 

Row | Compound | EC50 [1] | IC50 [2] | other results
41 | CC(C)N(c1ccc(Oc2ccccc2C(F)(F)F)cc1C(=O)O)C(=O)[C@H]1CC[C@H](C)CC1 |  | 190 nM | pKa [3]: 5.5; Papp A→B [4]: 15 ×10⁻⁶ cm/s; solubility [5]: < 0.1 µg/mL; logD [6]: 2.9; half-life at 2 µM [7]: 1.3 h
